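Five concentrations, 48 hours, 96-well plates. GI50: concentration for 50% inhibition of growth. At the TGI there is no net growth.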
Experiments:
Assay in all cases: growth of human tumour cells (NCI), 48 h
MOLT-4 leukemia = tested on: MOLT-4 leukemia
ACHN renal = tested on: ACHN renal
SN12C renal = tested on: SN12C renal
HCT-15 colon = tested on: HCT-15 colon
K-562 leukemia = tested on: K-562 leukemia
MALME-3M melanoma = tested on: MALME-3M melanoma
SK-OV-3 ovarian = tested on: SK-OV-3 ovarian
NCI/ADR-RES ovarian = tested on: NCI/ADR-RES ovarian
COLO 205 colon = tested on: COLO 205 colon
SK-MEL-2 melanoma = tested on: SK-MEL-2 melanoma
786-0 renal = tested on: 786-0 renal
A549 NSCLC = tested on: A549 NSCLC
NCI-H460 lung = tested on: NCI-H460 lung
MDA-MB-435 = tested on: MDA-MB-435
M14 melanoma = tested on: M14 melanoma
SK-MEL-28 melanoma = tested on: SK-MEL-28 melanoma
SF-539 CNS = tested on: SF-539 CNS
NCI-H23 lung = tested on: NCI-H23 lung
OVCAR-8 ovarian = tested on: OVCAR-8 ovarian
SF-268 CNS = tested on: SF-268 CNS
UACC-62 melanoma = tested on: UACC-62 melanoma
RXF 393 renal = tested on: RXF 393 renal
EKVX NSCLC = tested on: EKVX NSCLC
SR leukemia = tested on: SR leukemia
MDA-MB-231 breast = tested on: MDA-MB-231 breast
HT29 colon = tested on: HT29 colon
U251 CNS = tested on: U251 CNS
TK-10 renal = tested on: TK-10 renal
MCF7 breast = tested on: MCF7 breast

`CCOc1ccc(NC2=C(Cl)C(=O)c3nc(C)ccc3C2=O)cc1` gave a TGI (MOLT-4 leukemia) of over 100 µM, a GI50 (ACHN renal) of 1.57 µM and a TGI (ACHN renal) of 2.92 µM. For the same compound, the GI50 (SN12C renal) was 1.58 µM, the TGI (SN12C renal) was 2.99 µM and the GI50 (HCT-15 colon) was 1.3 µM. For the same compound, the TGI (HCT-15 colon) was 2.95 µM, the GI50 (K-562 leukemia) was 1.17 µM and the TGI (K-562 leukemia) was over 100 µM. For the same compound, the GI50 (MALME-3M melanoma) was 1.65 µM, the TGI (MALME-3M melanoma) was 3.16 µM and the GI50 (SK-OV-3 ovarian) was 11 µM. The TGI (SK-OV-3 ovarian) was 30.1 µM, the GI50 (NCI/ADR-RES ovarian) was 1.7 µM and the TGI (NCI/ADR-RES ovarian) was 4.11 µM. It also gave a GI50 (COLO 205 colon) of 1.86 µM, a TGI (COLO 205 colon) of 3.64 µM and a GI50 (SK-MEL-2 melanoma) of 1.63 µM. The TGI (SK-MEL-2 melanoma) was 3.03 µM, the GI50 (786-0 renal) was 1.72 µM and the TGI (786-0 renal) was 3.19 µM. The GI50 (A549 NSCLC) was 2.09 µM, the TGI (A549 NSCLC) was 4.64 µM and the GI50 (NCI-H460 lung) was 3.08 µM. It also gave a TGI (NCI-H460 lung) of 10.4 µM, a GI50 (MDA-MB-435) of 0.442 µM and a TGI (MDA-MB-435) of 1.53 µM. It also gave a GI50 (M14 melanoma) of 1.68 µM, a TGI (M14 melanoma) of 3.23 µM and a GI50 (SK-MEL-28 melanoma) of 1.73 µM. The TGI (SK-MEL-28 melanoma) was 3.14 µM, the GI50 (SF-539 CNS) was 1.68 µM and the TGI (SF-539 CNS) was 3.13 µM. For the same compound, the GI50 (NCI-H23 lung) was 1.35 µM, the TGI (NCI-H23 lung) was 2.85 µM and the GI50 (OVCAR-8 ovarian) was 1.57 µM. For the same compound, the TGI (OVCAR-8 ovarian) was 3.01 µM, the GI50 (SF-268 CNS) was 1.55 µM and the TGI (SF-268 CNS) was 3.09 µM. For the same compound, the GI50 (UACC-62 melanoma) was 1.81 µM, the TGI (UACC-62 melanoma) was 3.29 µM and the GI50 (RXF 393 renal) was 1.57 µM. The TGI (RXF 393 renal) was 2.96 µM, the GI50 (EKVX NSCLC) was 1.61 µM and the TGI (EKVX NSCLC) was 3.12 µM. The GI50 (SR leukemia) was 1.09 µM, the TGI (SR leukemia) was over 100 µM and the GI50 (MDA-MB-231 breast) was 1.17 µM. For the same compound, the TGI (MDA-MB-231 breast) was 2.5 µM, the GI50 (HT29 colon) was 2.87 µM and the TGI (HT29 colon) was 7.08 µM. The GI50 (U251 CNS) was 1.8 µM, the TGI (U251 CNS) was 3.54 µM and the GI50 (TK-10 renal) was 2.3 µM. It also gave a TGI (TK-10 renal) of 3.77 µM, a GI50 (MCF7 breast) of 1.54 µM and a TGI (MCF7 breast) of 3.82 µM.
